Data reported in ChEMBL document CHEMBL1201862, “PubChem BioAssay data set” (2004).
“And” between values parts separate entries of the source, which are not always exact repeats. Identical values can stand only once.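 How tested: cells in 96-well plates exposed to compound for 48 hours at five concentrations. GI50 marks 50% less growth.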 The source made the active and inactive calls. No stated cut-off is given here; in the data, active = GI50 up to about 1.1 µM and inactive = higher.

Experiments:
Assay in all cases: NCI-60 cell line screen, 48 h
[1] = tested on: ACHN
[2] = tested on: CAKI-1
[3] = tested on: CCRF-CEM
[4] = tested on: COLO 205
[5] = tested on: DU-145
[6] = tested on: HCC 2998
[7] = tested on: HCT-116
[8] = tested on: HOP-62
[9] = tested on: IGROV-1
[10] = tested on: M14
[11] = tested on: MDA-N
[12] = tested on: NCI/ADR-RES
[13] = tested on: OVCAR-3
[14] = tested on: PC-3
[15] = tested on: SF-268
[16] = tested on: SK-MEL-2
[17] = tested on: SNB-75
[18] = tested on: T47D
[19] = tested on: U-251
[20] = tested on: UO-31

| SMILES | GI50 [1] | GI50 [2] | GI50 [3] | GI50 [4] | GI50 [5] | GI50 [6] | GI50 [7] | GI50 [8] | GI50 [9] | GI50 [10] | GI50 [11] | GI50 [12] | GI50 [13] | GI50 [14] | GI50 [15] | GI50 [16] | GI50 [17] | GI50 [18] | GI50 [19] | GI50 [20] |
| --- | --- | --- | --- | --- | --- | --- | --- | --- | --- | --- | --- | --- | --- | --- | --- | --- | --- | --- | --- | --- |
| COc1cc([C@@H]2c3cc4c(cc3[C@@H](Nc3ccc(/N=C\c5ccc(C(=O)O[C@@H](C(=O)O[C@H]6C[C@@]7(O)[C@@H](OC(=O)c8ccccc8)[C@@H]8[C@]9(OC(C)=O)CO[C@@H]9C[C@H](O)[C@@]8(C)C(=O)[C@H](OC(C)=O)C(=C6C)C7(C)C)[C@@H](NC(=O)c6ccccc6)c6ccccc6)cc5)cc3)[C@H]3COC(=O)[C@H]23)OCO4)cc(OC)c1O | 0.455 µM (active) | 0.916 µM (active) | 0.544 µM (active) | 1.39 µM (inactive) | 2.68 µM (inactive) | 14.9 µM (inactive) | 3.28 µM (inactive) | 2.93 µM (inactive) | 12.4 µM (inactive) | 5.48 µM (inactive) | 9.33 µM (inactive) | > 45.8 µM (inactive) | 15.9 µM (inactive) | > 46.1 µM (inactive) | 4.34 µM (inactive) | > 33.7 µM (inactive) | 2.29 µM (inactive) | 11.4 µM (inactive) | 3.34 µM (inactive) | – |
| CCOC(=O)Nc1ccc2c(c1)c(CCCCCCc1nc3ccccc3c3ccc(NC(=O)OCC)cc13)nc1ccccc12 | 39 µM (inactive) | 34.8 µM (inactive) | > 100 µM (inactive) | > 100 µM (inactive) | > 100 µM (inactive) | > 100 µM (inactive) | 54.3 µM (inactive) | 27.7 µM (inactive) | > 100 µM (inactive) | 29.1 µM (inactive) | 61.2 µM (inactive) | 41.2 µM (inactive) | 21.3 µM (inactive) | > 100 µM (inactive) | 26.5 µM (inactive) | 29.9 µM (inactive) | 16.3 µM (inactive) | > 100 µM (inactive) | – | 68.4 µM (inactive) |
| CC1OC(OC2C(OC(=O)[C@]34CCC(C)(C)C[C@H]3C3=CC[C@@H]5[C@@]6(C)CC[C@H](OC7OC(CO)C(O)C(O)C7OC7OC(CO)C(O)C(O)C7O)C(C)(C)[C@@H]6CC[C@@]5(C)[C@]3(C)CC4)OCC(O)C2O)C(O)C(O)C1OC1OCC(O)C(OC2OCC(O)C(O)C2O)C1O (some centres not stated) | 5.98 µM (inactive) and 4.8 µM (inactive) | 3.6 µM (inactive) and 4 µM (inactive) | 11.3 µM (inactive) and 13.2 µM (inactive) | 1.78 µM (inactive) and 2.43 µM (inactive) | 8.11 µM (inactive) and 7.05 µM (inactive) | 2 µM (inactive) and 1.76 µM (inactive) | 5.04 µM (inactive) and 3.85 µM (inactive) | – | 11.9 µM (inactive) and 8.38 µM (inactive) | 1.97 µM (inactive) and 1.79 µM (inactive) | 1.64 µM (inactive) and 1.88 µM (inactive) | 5.81 µM (inactive) and 3.99 µM (inactive) | 10.7 µM (inactive) and 6.5 µM (inactive) | 6.62 µM (inactive) and 5.32 µM (inactive) | 6.03 µM (inactive) and 5.07 µM (inactive) | 3.01 µM (inactive) and 2.9 µM (inactive) | 7.93 µM (inactive) and 5.86 µM (inactive) | 4.13 µM (inactive) and 6.3 µM (inactive) | 6.76 µM (inactive) and 9.84 µM (inactive) | 1.88 µM (inactive) and 1.99 µM (inactive) |
| Cc1ncc([N+](=O)[O-])n1CCNC(=O)CCCn1cnc([N+](=O)[O-])n1 | > 100 µM (inactive) | > 100 µM (inactive) | > 100 µM (inactive) | > 100 µM (inactive) | > 100 µM (inactive) | > 100 µM (inactive) | > 100 µM (inactive) | > 100 µM (inactive) | > 100 µM (inactive) | > 100 µM (inactive) | > 100 µM (inactive) | > 100 µM (inactive) | > 100 µM (inactive) | > 100 µM (inactive) | > 100 µM (inactive) | > 90.8 µM (inactive) | 98.6 µM (inactive) | > 100 µM (inactive) | > 100 µM (inactive) | > 100 µM (inactive) |
